Experiments:
[1] = xn = mol fraction of the nth substance listed; details: 101 kPa, Liquid, Vibrating tube method
[2] = refractive index (Na D-line) (dimensionless); xn = mol fraction of the nth substance listed; details: 101 kPa, Liquid, Standard Abbe refractometry

C1CCC(NC2CCCCC2)CC1 [N-cyclohexylcyclohexanamine] + CCCCO
Details	mass density, [1] [kg/m3]	refractive index, [2]
288.15 K, x2 = 0	915.498	1.48636
288.15 K, x2 = 0.0512	914.315	1.48502
288.15 K, x2 = 0.1	912.993	1.48368
288.15 K, x2 = 0.2005	909.753	1.48027
288.15 K, x2 = 0.3005	905.695	1.47614
288.15 K, x2 = 0.4005	900.544	1.47121
288.15 K, x2 = 0.5	893.978	1.46517
288.15 K, x2 = 0.6002	885.407	1.45768
288.15 K, x2 = 0.7002	874.118	1.44826
288.15 K, x2 = 0.7984	859.411	1.43656
288.15 K, x2 = 0.8999	839.302	1.42104
288.15 K, x2 = 0.9493	827.33	1.41197
293.15 K, x2 = 0	911.705	1.48416
293.15 K, x2 = 0.0512	910.505	1.4828
293.15 K, x2 = 0.1	909.162	1.48147
293.15 K, x2 = 0.2005	905.869	1.47804
293.15 K, x2 = 0.3005	901.749	1.4739
293.15 K, x2 = 0.4005	896.535	1.46892
293.15 K, x2 = 0.5	889.912	1.46289
293.15 K, x2 = 0.6002	881.306	1.45538
293.15 K, x2 = 0.7002	870.025	1.44587
293.15 K, x2 = 0.7984	855.383	1.43432
293.15 K, x2 = 0.8999	835.393	1.4189
293.15 K, x2 = 0.9493	823.486	1.40987
298.15 K, x2 = 0	907.923	1.48198
298.15 K, x2 = 0.0512	906.698	1.4806
298.15 K, x2 = 0.1	905.333	1.47926
298.15 K, x2 = 0.2005	901.986	1.47579
298.15 K, x2 = 0.3005	897.806	1.47165
298.15 K, x2 = 0.4005	892.53	1.46666
298.15 K, x2 = 0.5	885.853	1.46059
298.15 K, x2 = 0.6002	877.207	1.45309
298.15 K, x2 = 0.7002	865.925	1.44368
298.15 K, x2 = 0.7984	851.344	1.43208
298.15 K, x2 = 0.8999	831.466	1.41673
298.15 K, x2 = 0.9493	819.618	1.40779
303.15 K, x2 = 0	904.144	1.47978
303.15 K, x2 = 0.0512	902.899	1.47842
303.15 K, x2 = 0.1	901.51	1.47704
303.15 K, x2 = 0.2005	898.104	1.47358
303.15 K, x2 = 0.3005	893.865	1.46939
303.15 K, x2 = 0.4005	888.526	1.4644
303.15 K, x2 = 0.5	881.79	1.45831
303.15 K, x2 = 0.6002	873.106	1.4508
303.15 K, x2 = 0.7002	861.822	1.44139
303.15 K, x2 = 0.7984	847.289	1.42985
303.15 K, x2 = 0.8999	827.516	1.4146
303.15 K, x2 = 0.9493	815.728	1.40565
308.15 K, x2 = 0	900.372	1.47761
308.15 K, x2 = 0.0512	899.101	1.47623
308.15 K, x2 = 0.1	897.686	1.47485
308.15 K, x2 = 0.2005	894.222	1.47136
308.15 K, x2 = 0.3005	889.919	1.46716
308.15 K, x2 = 0.4005	884.519	1.46213
308.15 K, x2 = 0.5	877.726	1.45604
308.15 K, x2 = 0.6002	868.997	1.44852
308.15 K, x2 = 0.7002	857.708	1.43914
308.15 K, x2 = 0.7984	843.219	1.42763
308.15 K, x2 = 0.8999	823.538	1.41241
308.15 K, x2 = 0.9493	811.807	1.40352
313.15 K, x2 = 0	896.608	1.47562
313.15 K, x2 = 0.0512	895.307	1.47419
313.15 K, x2 = 0.1	893.863	1.47267
313.15 K, x2 = 0.2005	890.338	1.4691
313.15 K, x2 = 0.3005	885.971	1.46487
313.15 K, x2 = 0.4005	880.507	1.45979
313.15 K, x2 = 0.5	873.654	1.45368
313.15 K, x2 = 0.6002	864.881	1.44613
313.15 K, x2 = 0.7002	853.579	1.43676
313.15 K, x2 = 0.7984	839.126	1.42522
313.15 K, x2 = 0.8999	819.533	1.41016
313.15 K, x2 = 0.9493	807.851	1.40134
318.15 K, x2 = 0	892.847	1.47347
318.15 K, x2 = 0.0512	891.512	1.472
318.15 K, x2 = 0.1	890.04	1.47049
318.15 K, x2 = 0.2005	886.452	1.46689
318.15 K, x2 = 0.3005	882.018	1.46265
318.15 K, x2 = 0.4005	876.487	1.45753
318.15 K, x2 = 0.5	869.572	1.4514
318.15 K, x2 = 0.6002	860.75	1.44384
318.15 K, x2 = 0.7002	849.434	1.43447
318.15 K, x2 = 0.7984	835.005	1.42299
318.15 K, x2 = 0.8999	815.488	1.40798
318.15 K, x2 = 0.9493	803.854	1.39919
323.15 K, x2 = 0	889.089	1.47134
323.15 K, x2 = 0.0512	887.718	1.46985
323.15 K, x2 = 0.1	886.213	1.46835
323.15 K, x2 = 0.2005	882.559	1.46474
323.15 K, x2 = 0.3005	878.053	1.46049
323.15 K, x2 = 0.4005	872.455	1.45537
323.15 K, x2 = 0.5	865.476	1.4492
323.15 K, x2 = 0.6002	856.603	1.44162
323.15 K, x2 = 0.7002	845.267	1.43225
323.15 K, x2 = 0.7984	830.854	1.42074
323.15 K, x2 = 0.8999	811.404	1.40571
323.15 K, x2 = 0.9493	799.814	1.39701
